Results published in patent US9975884B2, “Kojic acid-derived mannich bases with biological effect” (priority 2015, dated 2018).
Values after ≈ are worked out from the molar mass of the structure shown. Read-outs that look alike come from different tables or passages of the source.

Experiments:
Metal chelation effect = settings: for iron chelation effect: dose amount of 1000 μg/ml
tyrosinase = format: biochemical
M. avium (ATCC 15769) = experiment: Antimycobacterial activity; format: cell-based, Mycobacterium avium; settings: for MIC: Mycobacterium avium
[1] = DPPH free radical scavenging effect; settings: 1000 μg/ml
[2] = Iron reduction antioxidant power (FRAP); settings: 1000 μg/ml
[3] = Phosphomolybdenum reduction antioxidant power (PRAP); settings: for Phosphomolybdenum Reduction Antioxidant Power (Absorbance at 600 nm ± S.S): 1000 μg/ml
[4] = DMPD radical scavenging effect; settings: 1000 μg/ml
collagenase = experiment: Collagenase enzyme inhibition; format: biochemical
Method: Physical properties of the compounds such as efficiency of synthesis reactions and melting points are determined. […] Antidermatophytic activity of the compounds against Trichophyton mentagrophytes var. erinacei, Epidermophyton floccosum and Microsporum gypseum as well as their antimycobacterial activity against Mycobacterium tuberculosis H37Rv (ATCC 27294) and M. avium (ATCC 15769) are analyzed under non-toxic concentrations using MRC-5 and He-La cell lines. Antityrosinase activity thereof is determined by spectrophotometric method using L-DOPA as a substrate. Antioxidant activity is determined by the methods of 2,2-diphenyl-1-picrilhydrasil (DPPH), N,N-dimethyl-p-phenylenediamine (DMPD) radical scavenging activity, metal chelation effect, iron-(FRAP), phosphomolybdenum-(PRAP) reducing antioxidant power. Elastase and collagenase enzyme inhibitions are performed to determine anti-aging activity. Due to their antityrosinase, antioxidant, anti-aging, antidermatophytic and antimycobacterial effects, the compounds may be used in medicine, cosmeceutical, food and textile industry.

elastase = experiment: Elastase enzyme inhibition; format: biochemical
Solubility in solvents = format: physicochemical
Method: Melting point: 180-1<*>C, Yield: 90%. White powder crystals. Insoluble in water, low-solubility in methanol, ethanol and acetone, and soluble in chloroform.
Melting point 196-7° C., Yield: 93%. White powder crystals. Insoluble in water, methanol, ethanol and acetone, but soluble in chloroform.

[5] = ATCC15769, value column 8 of the table, read-out: MIC against M. avium

Compound	DPPH Free Radical Scavenging Effect (Scavenging % ± S.S) [1] [%]	Metal Chelation Effect (Chelation % ± S.S) (Metal chelation effect; 1000 μg/ml) [%]	Iron Reduction Antioxidant Power (Absorbance at 700 nm ± S.S) [2]	antioxidant power of phosphomolybdenum structure [3] [µg/mL]	Phosphomolybdenum Reduction Antioxidant Power (Absorbance at 600 nm ± S.S) [3]	DMPD Radical Scavenging Effect (Scavenging % ± S.S) [4] [%]	Collagenase Enzyme Inhibition (Inhibition % ± S.S) (collagenase; 1000 μg/ml-Stock) [%]	elastase enzyme inhibition (elastase)	further results
O=C(O)CN(CCN(CC(=O)O)CC(=O)O)CC(=O)O [EDTA, ethylenediaminetetraacetic acid]									Metal Chelation Effect (Chelation % ± S.S) (Metal chelation effect; 2000 μg/ml): 97.66±0.12%
O=c1cc(CO)occ1O [Kojic Acid, Kojic acid]	22.51 ± 2.65	8.89 ± 0.75	0.757 ± 0.026	0.103 ± 0.006	0.103 ± 0.006	41.86 ± 1.10	15.18 ± 5.92	No elastase enzyme inhibition is detected	Low-dose antityrosinase activity (tyrosinase; 0.025 mg/ml): 18.65 ± 1.33; Low-dose antityrosinase activity (tyrosinase; 0.05 mg/ml): 44.74 ± 0.53; Low-dose antityrosinase activity (tyrosinase; 0.1 mg/ml): 61.28 ± 2.03; Low-dose antityrosinase activity (tyrosinase; 0.25 mg/ml): 77.44 ± 0.68; MIC (M. avium (ATCC 15769); ATCC15769, read-out: MIC against M. avium): 16 µg/mL (≈ 113 µM)
O=c1cc(CO)oc(CN2CCN(Cc3ccc(Cl)c(Cl)c3)CC2)c1O [Compound of Formula 1]	14.59 ± 2.52	67.57 ± 1.30	0.274 ± 0.003	0.154 ± 0.004	0.154 ± 0.004	36.05 ± 3.11	15.57 ± 2.24	No elastase enzyme inhibition is detected	IC50 (tyrosinase) (tyrosinase): 0.011 ± 0.001 mg/mL; Low-dose antityrosinase activity (tyrosinase; 0.0025 mg/ml): 23.63 ± 1.65; Low-dose antityrosinase activity (tyrosinase; 0.005 mg/ml): 37.81 ± 0.54; Low-dose antityrosinase activity (tyrosinase; 0.01 mg/ml): 51.25 ± 1.09; Low-dose antityrosinase activity (tyrosinase; 0.025 mg/ml): 56.79 ± 0.44; Low-dose antityrosinase activity (tyrosinase; 0.05 mg/ml): 70.62 ± 1.62; Low-dose antityrosinase activity (tyrosinase; 0.1 mg/ml): 73.57 ± 4.81; Low-dose antityrosinase activity (tyrosinase; 0.25 mg/ml): 80.63 ± 2.01; antityrosinase effect, times higher than kojic acid (tyrosinase; relative to kojic acid): 6 times; MIC (M. avium (ATCC 15769); [5]): 2 µg/mL; iron chelation effect (Metal chelation effect): 67.57±1.30%; solubility in chloroform (Solubility in solvents): soluble; solubility in methanol, ethanol and acetone (Solubility in solvents): low-solubility; solubility in water (Solubility in solvents): Insoluble; melting point: 180 to 181 °C
O=c1c(O)c(-c2ccc(O)c(O)c2)oc2cc(O)cc(O)c12 [Quercetin, quercetin]	91.14 ± 0.65		2.015 ± 0.032		0.320 ± 0.005				
3-Hydmxy-6-(hydmxymethyl)-2-[{4-(2,6 diclorobenzyl)piperazme-1-il]methyl-4H-pyran-4-one [Compound of Formula 2]	12.20 ± 1.72	58.17 ± 0.99	0.217 ± 0.002	0.187 ± 0.017	0.187 ± 0.017	24.94 ± 1.64	12.40 ± 4.57	No elastase enzyme inhibition is detected	MIC against M. avium (M. avium (ATCC 15769)): 2 µg/mL; iron chelation effect (Metal chelation effect): 58.17±0.99%; solubility in chloroform (Solubility in solvents): soluble; solubility in methanol, ethanol and acetone (Solubility in solvents): Insoluble; solubility in water (Solubility in solvents): Insoluble
O=C1O[C@H]([C@@H](O)CO)C(O)=C1O [Ascorbic acid]						69.58 ± 0.71			
NNC(=O)c1ccncc1 [Isoniazide]									MIC (M. avium (ATCC 15769); [5]): 0.125 µg/mL (≈ 0.911 µM)
O=C(O[C@@H]1Cc2c(O)cc(O)cc2O[C@@H]1c1cc(O)c(O)c(O)c1)c1cc(O)c(O)c(O)c1 [EGCG, epigallocatechin gallate]									Collagenase Enzyme Inhibition (Inhibition % ± S.S) (collagenase; 15 mM): 44.64 ± 2.87%
